Test results reported in US5756463A, “Use of insulin and IGF-1” (Pharmacia & Upjohn AB, priority 1994, dated 1998).
Entries after “also recorded” stand apart in the source; their conditions may differ.

Assays:
Male Sprague-Dawley rats [1] = test: Example 1: body weight gain and nitrogen retention in dexamethasone-infused rats, 8-day subcutaneous mini-pump infusion; assay type: in vivo, rat; conditions: 8 days
Method: On day zero the rats were anaesthetized intraperitoneally with 0.4 ml per 100 g body weight of a mixture of Rompun (20 mg.ml^-1), Ketalar (50 mg.ml^-1) and Saline (0.9%) in 1:2:3 volume proportions. The hair on the back of the rats was shaved off and the exposed skin carefully washed with 0.05% chlorhexidine (Pharmacia, Stockholm, Sweden) and 0.4 % jodopax (Molnlycke, Goteborg, Sweden), both being diluted in 70% alcohol. Two mutually parallel incisions, each of 15 mm in length, were then made along the dorsal midline. The incisions penetrated the epidermis, dermis and subcutaneous muscle but left the deep fascia intact. Two subcutaneous pockets were made on both sides of the incisions by separating the subcutaneous muscle from the deep fascia. One (Exp. I) or two (Exp. 2) mini-pumps were implanted in each pocket. The wounds were closed with sutures 4-0 (Johnson & Johnson). Osmotic mini-pumps (Alzet 2001, Alza Corporation, Palo Alto, USA) releasing 1 μl.h^-1 for 8 days were used for continuous delivery of hormones and Dex to the animals. The pumps were filled to a volume of 0.22 ml with solutions of rhGH (14.4 mg.ml^-1, Genotropin®, Pharmacia), […] (20 mg.ml^-1, Igef®, Pharmacia, Kabi Peptide Hormones, Stockholm, Sweden), insulin (1.57 mg/ml, Actrapid®, Novo, Copenhagen, Denmark), Dex (1.04 mg.ml^-1, Decadron, Merck Sharp & Dohme International, […], USA) or Saline (0.9%). Two (Example 1) or four (Example 2) pumps combined as described above were implanted in each rat. Implantation of the pumps was performed under strictly aseptic conditions. Total feed intake was registered throughout the full 8 day experimental period. Urine and faeces were collected daily, pooled and kept at -20° C. until analysed. Excreta was collected by housing the animals in individual metabolism cages that were specially designed for the separation of urine and faeces. In order to inhibit urease-activity in the urine, 1 ml of 5% sulphuric acid was pipetted every morning in the collection vessels. The 24 hour collections of urine were pooled individually for each treatment period and immediately frozen after the collection. Similarly, the samples of faeces were also pooled individually for each treatment period and kept frozen (-20° C.) until analysis. Urea in serum was determined spectrophotometrically by using the Urea UV Uni-Kit I (Roche) with an autoanalyzer (Cobas Mira, Roche Co, Basel, Switzerland). Urea values were expressed in mmol/l. The total nitrogen content in urine was determined with the aid of the Antek Pyro-Chemiluminiscence Nitrogen System. The apparatus used comprised the […] nitrogen analyser with Liquid Auto Sampler 736-2 and a pyrolysis tube with a ceramic […] Instruments Inc., Houston, Tex., U.S.A.). The frozen urinary samples were thawed and diluted 1:100 with 0.1 M HCl and then analysed. The urinary nitrogen values were then calculated as mg nitrogen excreted. Total nitrogen in faeces was determined by an established Kjeldahl method (Kjeltec System, Tecator AB, Halsingborg, Sweden). The frozen faecal samples were thawed and dried in an oven at 60° C. overnight. The weight of the dried sample was noted and the sample then ground. 0.20 g of the milled faecal sample was mixed in a Kjeldahl digestion tube with 10.0 ml of concentrated sulphuric acid. 2.0 ml of a 30% solution of H202 (30% Perhydrol, Merck, Darmstadt, Germany) was added and mixed carefully. One catalyst tablet (Kjeltabs CA, Thompson & Capper, Runcom, Cheshire, UK) was added to each sample. The mixture was digested at […] for at least one hour or until complete bleaching of the sample was achieved. […] The faecal nitrogen values were calculated as mg nitrogen excreted. Data were subjected to a one-way analysis of variance in which the effect of treatment was considered the prime source of variation. Calculations were executed by the GLM procedure of the SAS program (SAS 1985). […]

Male Sprague-Dawley rats [2] = test: Example 2: feed intake, nitrogen digestibility and nitrogen retention in dexamethasone-infused rats, 8-day mini-pump infusion of peptide combinations; assay type: in vivo, rat; conditions: 8 days; for relative nitrogen retention (retained N/digested N×100): Dex 26 μg/day with saline or with insulin 39, rhGH 360, rhIGF-I 500 μg/day, mean, pooled SE, saline alone 38.7%; for nitrogen retention, effect compared with Dex without peptide: Dex 26 μg/day plus peptide
Method: On day zero the rats were anaesthetized intraperitoneally with 0.4 ml per 100 g body weight of a mixture of Rompun (20 mg.ml^-1), Ketalar (50 mg.ml^-1) and Saline (0.9%) in 1:2:3 volume proportions. The hair on the back of the rats was shaved off and the exposed skin carefully washed with 0.05% chlorhexidine (Pharmacia, Stockholm, Sweden) and 0.4 % jodopax (Molnlycke, Goteborg, Sweden), both being diluted in 70% alcohol.
Two mutually parallel incisions, each of 15 mm in length, were then made along the dorsal midline. The incisions penetrated the epidermis, dermis and subcutaneous muscle but left the deep fascia intact. Two subcutaneous pockets were made on both sides of the incisions by separating the subcutaneous muscle from the deep fascia. One (Exp. I) or two (Exp. 2) mini-pumps were implanted in each pocket. The wounds were closed with sutures 4-0 (Johnson & Johnson).
Osmotic mini-pumps (Alzet 2001, Alza Corporation, Palo Alto, USA) releasing 1 μl.h^-1 for 8 days were used for continuous delivery of hormones and Dex to the animals. The pumps were filled to a volume of 0.22 ml with solutions of rhGH (14.4 mg.ml^-1, Genotropin®, Pharmacia), rhlGF-I (20 mg.ml^-1, Igef®, Pharmacia, Kabi Peptide Hormones, Stockholm, Sweden), insulin (1.57 mg/ml, Actrapid®, Novo, Copenhagen, Denmark), Dex (1.04 mg.ml^-1, Decadron, Merck Sharp & Dohme International, Rathway, USA) or Saline (0.9%). Two (Example 1) or four (Example 2) pumps combined as described above were implanted in each rat. Implantation of the pumps was performed under strictly aseptic conditions.
Total feed intake was registered throughout the full 8 day experimental period. Urine and faeces were collected daily, pooled and kept at -20° C. until analysed. Excreta was collected by housing the animals in individual metabolism cages that were specially designed for the separation of urine and faeces. In order to inhibit urease-activity in the urine, 1 ml of 5% sulphuric acid was pipetted every morning in the collection vessels. The 24 hour collections of urine were pooled individually for each treatment period and immediately frozen after the collection. Similarly, the samples of faeces were also pooled individually for each treatment period and kept frozen (-20° C.) until analysis.
Urea in serum was determined spectrophotometrically by using the Urea UV Uni-Kit I (Roche) with an autoanalyzer (Cobas Mira, Roche Co, Basel, Switzerland). Urea values were expressed in mmol/l. The total nitrogen content in urine was determined with the aid of the Antek Pyro-Chemiluminiscence Nitrogen System. The apparatus used comprised the Antek 7000N nitrogen analyser with Liquid Auto Sampler 736-2 and a pyrolysis tube with a ceramic liner (Antek Instruments Inc., Houston, Tex., U.S.A.). The frozen urinary samples were thawed and diluted 1:100 with 0.1 M HCl and then analysed. The urinary nitrogen values were then calculated as mg nitrogen excreted.
Total nitrogen in faeces was determined by an established Kjeldahl method (Kjeltec System, Tecator AB, Halsingborg, Sweden). The frozen faecal samples were thawed and dried in an oven at 60° C. overnight. The weight of the dried sample was noted and the sample then ground. 0.20 g of the milled faecal sample was mixed in a Kjeldahl digestion tube with 10.0 ml of concentrated sulphuric acid. 2.0 ml of a 30% solution of H202 (30% Perhydrol, Merck, Darmstadt, Germany) was added and mixed carefully. One catalyst tablet (Kjeltabs CA, Thompson & Capper, Runcom, Cheshire, UK) was added to each sample. The mixture was digested at […] for at least one hour or until complete bleaching of the sample was achieved. The nitrogen content of this solution was determined after alkalinization by steam distillation of the ammonia and automated titration of the distillate. The faecal nitrogen values were calculated as mg nitrogen excreted.
Data were subjected to a one-way analysis of variance in which the effect of treatment was considered the prime source of variation.

[3] = Dex 26, 13 or 6.5 μg/day (every Dex dose), rhGH 360 μg/day or rhIGF-I 500 μg/day s.c. mini-pump, compared with saline

reduction of feed intake (Male Sprague-Dawley rats [2]; Dex 26 μg/day) | Compound | body weight gain, effect of Dex dose (Male Sprague-Dawley rats [1]; Dex 6.5, 13, 26 μg/day) | relative nitrogen retention (retained N/digested N×100) (Male Sprague-Dawley rats [2]) | nitrogen retention, effect compared with Dex without peptide (Male Sprague-Dawley rats [2]) | body weight gain (Male Sprague-Dawley rats [1]; [3]) | body weight gain (Male Sprague-Dawley rats [1]; Dex 26, 13 or 6.5 μg/day (every Dex dose), rhGH 360 μg/day or rhIGF-I 500 μg/day s.c. mini-pump, compared with saline, listed as hGH) | body weight gain (Male Sprague-Dawley rats [1]; medium and high Dex infusion dose (13 and 26 μg/day), rhGH 360 μg/day) | retention of nitrogen (Male Sprague-Dawley rats [1]; Dex 26, 13 or 6.5 μg/day, rhIGF-I 500 μg/day, compared with saline and rhGH)
approximately 20% | C[C@@H]1C[C@H]2[C@@H]3CCC4=CC(=O)C=C[C@]4(C)[C@@]3(F)[C@@H](O)C[C@]2(C)[C@@]1(O)C(=O)CO [Dex, dexamethasone, reference compound] | general decrease with increased Dex dose | 7.2% | – | – | – | – | –
– | insulin | – | 11.9% | without effect | – | – | – | –
– | recombinant human growth hormone [rhGH] | – | 3.8% | without effect | opposite effect | opposite effect (p<0.05) | negative values for body weight gain | –
– | recombinant human insulin-like growth factor I [rhIGF-I] | – | 23.0% | – | significantly (p<0.05) higher weight gain in comparison with saline; also recorded: significantly (p<0.05) increased | – | – | significantly (p<0.05) higher
